The record followed here is PubChem BioAssay (NCI).

“And” between values parts separate entries of the source, which are not always exact repeats. Equal values may be shown once.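 Five concentrations, 48 hours, 96-well plates. The concentration for 50% growth inhibition is given as GI50. TGI marks complete inhibition of growth.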 Bounds are passed on as bounds.

Some test systems named below: U251 CNS; MDA-MB-231 breast; HOP-62 NSCLC; MOLT-4 leukemia; OVCAR-3 ovarian; OVCAR-4 ovarian; EKVX NSCLC; MALME-3M melanoma; NCI/ADR-RES ovarian; KM12 colon.
What all share (assay): inhibition of tumour cell growth, NCI panel, 48 h

`C#CCN1CCN(C(=S)N/N=C(\C)c2ccccn2)CC1`: the GI50 in the test on U251 CNS is 12.6 nM; in the test with HOP-62 NSCLC it was 124 nM; in the test on MOLT-4 leukemia, 136 nM; in the test on OVCAR-3 ovarian, 4.48 nM; in the test with OVCAR-4 ovarian it was 2730 nM; with EKVX NSCLC, 471 nM. Besides, the GI50 in the test with MALME-3M melanoma was 496 nM; in the test with NCI/ADR-RES ovarian it was 30.4 nM; in the test on KM12 colon, 400 nM. The TGI was 4450 nM in the test with U251 CNS; 3540 nM and 5040 nM in the test with MDA-MB-231 breast; 5890 nM with HOP-62 NSCLC; 2280 nM with MOLT-4 leukemia; 1400 nM and 1200 nM in the test with OVCAR-3 ovarian; 4740 nM and 3840 nM in the test on OVCAR-4 ovarian. For the same compound, the TGI is 3520 nM and 6910 nM with EKVX NSCLC; 5760 nM and 4600 nM in the test with MALME-3M melanoma; 1680 nM and 1560 nM in the test on NCI/ADR-RES ovarian; 4600 nM and 6330 nM in the test on KM12 colon.
`CS(=O)(=O)N1CCN(Cc2cc3nc(-c4cccc5[nH]ncc45)nc(N4CCOCC4)c3s2)CC1` (tested in a mixture with another compound): the GI50 with U251 CNS is 213 nM; in the test with MDA-MB-231 breast, 1490 nM; with HOP-62 NSCLC, 112 nM; in the test with MOLT-4 leukemia it was 60.8 nM; with OVCAR-3 ovarian, 61.5 nM; with OVCAR-4 ovarian, 514 nM. Further, the GI50 is 87 nM in the test with EKVX NSCLC, 139 nM in the test on MALME-3M melanoma, 284 nM in the test with NCI/ADR-RES ovarian and 82.6 nM with KM12 colon. The TGI in the test with MDA-MB-231 breast is more than 100000 nM; with OVCAR-3 ovarian, 586 nM; in the test with MALME-3M melanoma, 1990 nM; in the test on KM12 colon it was 415 nM.
As for `CC[N+](CC)=c1ccc2nc3c(cc(NCc4ccccc4)c4ccccc43)oc-2c1`, the GI50 with U251 CNS was 196 nM; in the test on MDA-MB-231 breast, 214 nM; with HOP-62 NSCLC it was 512 nM; in the test with MOLT-4 leukemia, 346 nM; in the test on OVCAR-3 ovarian, 95.1 nM; with OVCAR-4 ovarian, 176 nM. Besides, the GI50 was 159 nM in the test on EKVX NSCLC, 172 nM in the test with MALME-3M melanoma, 227 nM in the test on NCI/ADR-RES ovarian and 292 nM in the test on KM12 colon. For the same compound, the TGI in the test with U251 CNS stood at 962 nM; with MDA-MB-231 breast it was 1720 nM; in the test with HOP-62 NSCLC, 1860 nM; with MOLT-4 leukemia, 3170 nM; with OVCAR-3 ovarian, 557 nM; with OVCAR-4 ovarian it was 1630 nM. The TGI with EKVX NSCLC turned out to be 944 nM; with MALME-3M melanoma it was 358 nM; in the test with NCI/ADR-RES ovarian, 1760 nM; in the test with KM12 colon it was 1320 nM.
As to `CCCCCCCCOc1ccc(/C=N/Nc2cc(C)nc3ccc(Cl)cc23)cc1`, the GI50 in the test on U251 CNS was 1820 nM; with MDA-MB-231 breast, 1810 nM; in the test with HOP-62 NSCLC it was 1480 nM; in the test with MOLT-4 leukemia it was 2050 nM; in the test with OVCAR-3 ovarian, 2170 nM; in the test on OVCAR-4 ovarian, 1820 nM. Also, the GI50 in the test with EKVX NSCLC was 1800 nM; in the test with MALME-3M melanoma, 1850 nM; in the test with NCI/ADR-RES ovarian it was 1970 nM; in the test with KM12 colon, 1850 nM. Also, the TGI is 3390 nM with U251 CNS; 3470 nM in the test with MDA-MB-231 breast; 3090 nM in the test on HOP-62 NSCLC; 4930 nM in the test with MOLT-4 leukemia; 3820 nM in the test on OVCAR-3 ovarian; 3550 nM with OVCAR-4 ovarian. Moreover, the TGI was determined as 3330 nM with EKVX NSCLC, 3360 nM with MALME-3M melanoma, 4070 nM in the test with NCI/ADR-RES ovarian and 3440 nM with KM12 colon.
